US8394779B2, “Methods of modulating angiogenesis via TRPV4” (Children's Medical Center Corporation, priority 2008, dated 2013)
“Also recorded” adds a separate entry of the source. Where no end group is shown, it is not given here. [ ]: non-standard residue; d: D form.

How the values were obtained:
[1] = target: T1, TRPV4 channels (Homo sapiens, UniProt Q9HBA0); test: Calcium imaging with TRPV channel activator; type: cell-based; settings: human CE cells, 2 μM
T1 construct: host or cells: human dermal microvascular endothelial cells (HMVECs)
Procedure: (§1) CE cells cultured on fibronectin-coated 6 well UNIFLEX™ (FLEXCELL® International) plates for 24 hours were subjected to uniaxial cyclic stretch (10% elongation; 1 Hz frequency) for 1-2 h using a FLEXERCELL® TENSION PLUS™ System (FLEXCELL® International). In some experiments, CE cells were plated on fibronectin-coated 6 well BIOFLEX® (FLEXCELL® International) for lh and subjected to static stretch (15% elongation) for 1-15 min. Control cells were maintained under identical conditions in the absence of strain application. […] Images were acquired for every 4 seconds and analyzed using IP lab software and Microsoft Excel as described in Matthews, et. al. (2006) (J. Cell Sci., 119:508-518). Calcium imaging with TRPV channel activators was performed on cells cultured on MatTek glass bottomed dishes on LEICA® Confocal Microscope and analyzed using LEICA® software and MICROSOFT® EXCEL®. siRNA knock down of TRPV channels: smart pool siRNAs (10 nM) of TRPV2, TRPV4 (both from Dharmacon), TRPC1 (AMBION®) or control (QIAGEN®) siRNAs was transfected into CE cells using SILENTFECT™ reagent (BIORAD®) as described in Mammoto et. al. (2007) (J. Cell Sci., 120:456-467). […] The knock down of TRPV channel expression was assessed using RT-PCR with species-specific primers and Western blotting. […]

[2] = target: T2, TRPV4 channels (Bos taurus, UniProt A0A8F4X677); test: Calcium imaging with TRPV channel activator; type: cell-based; settings: bovine CE cells, 2 μM
T2 construct: endogenous in cells; host or cells: bovine CE cells
Procedure: as §1

[3] = test system: TRPV4-EGFP; test: Whole-cell patch clamp of bovine CE cells transfected with TRPV4-EGFP; type: cell-based; settings: 4 μM
Procedure: One day after bovine CE cells were transfected with TRPV4-EGFP, they were plated on gelatin-coated glass coverslips and allowed to grow for ˜24 h prior to recording. Cells were recorded in the whole-cell mode using borosilicate glass pipettes (1-3 MΩ) containing: (in mM) 120 CsMeSO3, 10 EGTA, 2 MgCl2, 10 HEPES; pH and osmolarity were adjusted with CsOH or HMeSO3, as needed, to 7.2 (23° C.) and ˜300 mOsm, respectively. Cells were bathed in a solution containing (in mM): 138 NaCl, 5 KCl, 1.8 CaCl2, 1 MgCl2, 10 HEPES; pH and osmolarity were adjusted with NaOH or HCl, as needed, to 7.4 (23° C.) and ˜310 mOsm, respectively. Cells were held at −40 mV for 3-5 min to allow for intracellular dialysis. Bath superfusion was stopped prior to initiating the recording of currents resulting from the indicated voltage protocol applied every 5 s. Immediately before use, a 4-α-PDD stock solution (2 mM in EtOH, on ice) was diluted 1:50 in bath solution under vortex and 50 μl was subsequently added to a still bath (0.5 ml) by pipette (final concentrations of 4 μM 4-α-PDD and 0.2% EtOH) and mixed by 3 gentle up/down pipette strokes. […]

[4] = test system: VEGF; settings: cited from earlier work
[5] = mice; cited from earlier work
[6] = test system: β1 integrin; test: Strain-induced β1 integrin activation (GST-FNIII8-11 binding, T788/789 phosphorylation); type: cell-based; settings: human CE cells; 30 min pretreatment
Procedure: (§2) Western blotting were performed according to methods published in Mammoto et. al. (2007) (J. Cell Sci., 120:456-467). Membranes containing transferred protein were blocked in 3% BSA/TBST for 1 h and incubated overnight with primary antibodies against AKT and phospho Ser-473 AKT (1:1000), phospho-Thr 788/789 of […] integrin cytoplasmic tail (1:1000), ERK1/2 and phospho ERK1/2 (1:1000), FAK and phospho FAK-pY397 (1:1000), actin (1:1000) and TRPV4 (1:1000) at 4° C. The membranes were subsequently washed incubated with HRP-conjugated secondary antibodies (1:5000) for 1 h and washed and incubated with SUPERSIGNAL® West Pico ECL reagent from Pierce Biotechnology Inc. (USA) and exposed to Kodak X-ray film (SIGMA ALDRICH®).
(§3) β1 integrin activation was measured using a glutathione S-transferase (GST) fusion protein consisting of FN III repeat 8-11 domains or 12G10 antibodies (Orr, A. W. et. al., 2006, Mol. Biol. Cell 17:4686-4697). Briefly, cells subjected to mechanical stretch were incubated with either 5 μg/ml of GST-FN III8-11 protein or 12G10 antibodies in PBS containing Ca^2+ and Mg^2+ for 30 min at 37° C., washed and lysed in SDS-sample buffer. The samples were separated on SDS-PAGE and the bound reagents were assessed on Western blots using anti GST-antibodies and HRP-conjugated secondary antibodies.

[7] = test system: cytosolic calcium in CE cells; test: Calcium influx on direct force application to cell surface integrins; type: cell-based, bovine; settings: within 5 to 50 msec
[8] = test system: β1 integrin; test: Strain-induced β1 integrin activation (GST-FNIII8-11 / 12G10 binding, T788/789 phosphorylation); type: cell-based; settings: bovine CE cells, GST-FNIII8-11 and 12G10 binding
Procedure: as §2, §3

[9] = test system: cytosolic calcium in CE cells; settings: within 2-5 sec; cited from earlier work
[10] = test system: PI3K; test: Strain-induced PI3K activity (GFP-AKT-PH translocation, AKT Ser-473 phosphorylation); type: cell-based, bovine; settings: mechanical strain 15%
Procedure: Cells adherent to flexible ECM substrates and subjected to mechanical stretch were washed in PBS, fixed in 4% paraformaldehyde for 30 min either mounted on glass slides (for visualizing GFP-AKT-PH translocation) or permeabilized with 0.25% TRITON®-X 100/PBS for 5 min for immuno staining. […] Images were acquired on a LEICA® Confocal SP2 microscope and processed using LEICA® software and Adobe Photoshop. GFP-AKT-PH domain translocation to the plasma membrane was quantified measuring either ratio of the perimeter of whole cell membrane and the membrane that contains the GFP-AKT-PH domain or the ratio of GFP fluorescence intensity of translocated GFP-AKT-PH domain and cytosol adjacent to the membrane. […] Statistical differences between experimental groups were determined using the student t-test.
Membranes containing transferred protein were blocked in 3% BSA/TBST for 1 h and incubated overnight with primary antibodies against AKT and phospho Ser-473 AKT (1:1000), phospho-Thr 788/789 of 131 integrin cytoplasmic tail (1:1000), ERK1/2 and phospho ERK1/2 (1:1000), FAK and phospho FAK-pY397 (1:1000), actin (1:1000) and TRPV4 (1:1000) at 4° C. […]

[11] = test system: cytosolic calcium in CE cells; test: Mechanical strain-induced calcium influx, FLUO-4 calcium imaging; type: cell-based, bovine; settings: strain 15%, 3-4 sec, gadolinium chloride 25 μM, siRNA 10 nM
Procedure: as §1

[12] = test system: bovine CE cells; test: Cyclic strain-induced CE cell reorientation (alignment); type: cell-based
Procedure: as §1

[13] = test system: CE cells
[14] = test system: VEGF; settings: in vivo; cited from earlier work

T2 sequence (A0A8F4X677 1-871): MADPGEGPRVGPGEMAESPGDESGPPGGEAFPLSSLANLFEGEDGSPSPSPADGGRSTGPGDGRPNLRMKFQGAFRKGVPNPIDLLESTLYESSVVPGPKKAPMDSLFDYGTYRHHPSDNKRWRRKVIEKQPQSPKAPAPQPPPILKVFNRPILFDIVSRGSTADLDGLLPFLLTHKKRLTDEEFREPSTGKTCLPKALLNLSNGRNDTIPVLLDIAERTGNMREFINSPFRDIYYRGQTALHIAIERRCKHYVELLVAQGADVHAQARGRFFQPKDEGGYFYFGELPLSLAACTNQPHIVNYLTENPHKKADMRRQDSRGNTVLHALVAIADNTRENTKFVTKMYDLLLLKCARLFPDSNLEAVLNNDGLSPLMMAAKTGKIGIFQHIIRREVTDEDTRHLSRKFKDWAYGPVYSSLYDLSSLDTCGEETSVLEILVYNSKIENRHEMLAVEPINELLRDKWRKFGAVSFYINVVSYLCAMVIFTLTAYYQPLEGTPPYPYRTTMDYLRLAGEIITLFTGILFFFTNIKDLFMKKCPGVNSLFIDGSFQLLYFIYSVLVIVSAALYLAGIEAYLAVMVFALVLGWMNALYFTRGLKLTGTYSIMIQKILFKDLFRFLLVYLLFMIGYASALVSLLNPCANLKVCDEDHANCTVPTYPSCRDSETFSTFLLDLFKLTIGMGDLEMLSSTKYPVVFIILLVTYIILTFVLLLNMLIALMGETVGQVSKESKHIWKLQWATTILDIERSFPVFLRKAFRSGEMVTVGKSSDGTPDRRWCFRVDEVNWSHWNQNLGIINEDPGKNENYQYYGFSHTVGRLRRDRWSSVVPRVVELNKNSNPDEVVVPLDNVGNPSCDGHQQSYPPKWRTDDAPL
T1 sequence (Q9HBA0 whole entry): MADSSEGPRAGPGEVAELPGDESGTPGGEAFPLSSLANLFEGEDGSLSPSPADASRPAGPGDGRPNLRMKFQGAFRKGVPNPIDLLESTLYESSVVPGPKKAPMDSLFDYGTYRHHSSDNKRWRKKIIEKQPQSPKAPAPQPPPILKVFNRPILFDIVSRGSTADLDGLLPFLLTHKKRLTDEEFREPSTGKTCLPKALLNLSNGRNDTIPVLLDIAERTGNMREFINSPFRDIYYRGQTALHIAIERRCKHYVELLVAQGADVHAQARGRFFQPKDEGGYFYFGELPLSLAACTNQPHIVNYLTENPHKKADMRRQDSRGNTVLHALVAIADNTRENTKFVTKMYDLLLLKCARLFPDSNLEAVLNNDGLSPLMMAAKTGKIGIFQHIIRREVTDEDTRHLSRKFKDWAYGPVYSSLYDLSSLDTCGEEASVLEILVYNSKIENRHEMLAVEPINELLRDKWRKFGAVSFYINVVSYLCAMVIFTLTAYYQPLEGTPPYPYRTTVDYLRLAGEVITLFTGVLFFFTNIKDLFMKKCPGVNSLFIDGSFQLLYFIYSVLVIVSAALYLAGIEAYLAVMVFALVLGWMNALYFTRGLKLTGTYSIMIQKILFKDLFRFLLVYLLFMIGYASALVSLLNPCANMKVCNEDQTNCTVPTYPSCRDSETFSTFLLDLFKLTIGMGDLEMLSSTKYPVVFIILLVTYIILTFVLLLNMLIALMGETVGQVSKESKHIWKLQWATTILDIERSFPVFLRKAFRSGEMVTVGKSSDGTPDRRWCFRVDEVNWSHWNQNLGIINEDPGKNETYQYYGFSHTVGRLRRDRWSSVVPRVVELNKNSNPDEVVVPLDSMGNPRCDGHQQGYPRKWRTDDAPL

**Q.** For `CCCCCCCCCC(=O)O[C@@H]1[C@@H](C)[C@@]2(O)[C@@H](C=C(CO)C[C@@]3(O)C(=O)C(C)=C[C@@H]23)[C@@H]2C(C)(C)[C@]12OC(=O)CCCCCCCCC` [4-α-PDD, 4-α-phorbol 12, 13-didecanoate], which calcium signal [1] is on record?
**A.** The calcium signal was “robust calcium signal”.

**Q.** What about the calcium signal [2] of the same compound?
**A.** Its calcium signal is “robust calcium signal”.

**Q.** What about the “TRPV4 currents, whole-cell clamp” value [3] of the same compound?
**A.** The value was “robust TRPV4 currents”.

**Q.** For `CN(C)c1ccc(/C=C2\C(=O)Nc3ccccc32)cc1` [SU 4312], which vessel formation [4] is on record?
**A.** The vessel formation was “blocked”.

**Q.** What does the source list for `CO[C@@H]1[C@H](OC(=O)NC(=O)CCl)CC[C@]2(CO2)[C@H]1[C@@]1(C)O[C@@H]1CC=C(C)C` [TNP-470]?
**A.** diet-induced and genetic obesity [5]: prevent; vascularity in the adipose tissue [5]: reduced

**Q.** With `[Cl][Gd]([Cl])[Cl]` [gadolinium chloride] as the compound, how does the “β1 integrin activation in response to mechanical strain” value [6] read?
**A.** Its value is “significantly inhibited”.

**Q.** What about the “calcium influx on force application to integrins” value [7] of the same compound?
**A.** The value was “inhibited”.

**Q.** And the “β1 integrin activation in response to mechanical strain” value [8]?
**A.** The value was “significantly inhibited”.

**Q.** What about the “calcium influx on direct force application to β1 integrins (magnetic tweezers)” value [9] of the same compound?
**A.** The value was “blocked”.

**Q.** What about the “strain-induced translocation of AKT-PH-GFP to the membrane” value [10] of the same compound?
**A.** The value was “inhibited”.

**Q.** And the “calcium influx / cytosolic calcium induced by mechanical strain” value [11]?
**A.** Its value is “almost completely abolished; also recorded: reduced influx”.

**Q.** What about the “CE cell reorientation / re-alignment induced by mechanical strain” value [12] of the same compound?
**A.** Its value is “greatly suppressed”.

**Q.** Which results are given for `N.N.N.N.N.N.N.N.N.N.N.N.N.N.[Cl-].[Cl-].[Cl-].[Cl-].[Cl-].[Cl-].[O-2].[O-2].[Ru+3].[Ru+3].[Ru+4]` [ruthenium red]?
**A.** CE cell apoptosis (poly(ADPribosyl) polymerase cleavage) [13]: did not effect; CE cell proliferation (Ki 67 staining) [13]: did not effect; calcium influx / cytosolic calcium induced by mechanical strain [11]: significantly suppressed; also recorded: reduced influx; CE cell reorientation / re-alignment induced by mechanical strain [12]: significantly suppressed; also recorded: inhibits

**Q.** Which arthritis severity [14] does the source give for “dRK6: Anti-VEGF hexapeptide RRKRRR (SEQ. ID. NO. 12) ([dR][dR][dK][dR][dR][dR])” here?
**A.** Its arthritis severity is “suppress and mitigate”.
